SMILES strings stand for the structures.

The text below walks through data of patent publication US5225607A, “Insecticidal ethers” (Imperial Chemical Industries PLC, priority 1985, dated 1993).

Format in all cases: in vivo
One assay deals with Tetranychus urticae. Nature of the assay: Insecticidal/acaricidal test, Tetranychus urticae (spider mites - adult), contact. The settings on record: 72 h, French bean leaf, 3 days, read-out: grading of mortality, TU. On the procedure:
(§1) The activity of the Product was determined using a variety of insect and acarine pests. The Product was used in the form of liquid preparations containing 500, 250 or 100 parts per million (ppm) by weight of the Product. The preparations were made by dissolving the Product in acetone and diluting the solutions with water containing 0.01% by weight of a wetting agent sold under the trade name "LISSAPOL" NX until the liquid preparations contained the required concentratio of the Product. "Lissapol" is a Registered Trade Mark.
(§2) The test procedure adopted with regard to each pest was basically the same and comprised supporting a number of the pests on a medium which was usually a host plant or a foodstuff on which the pests feed, and treating either or both the pests and the medium with the preparations. The mortality of the pests was then assessed at periods usually varying from one to three days after the treatment.
(§3) The results of the tests are given in Table IV for each of the Products, at the rate in parts per million given in the second column as a grading of mortality designated as A, B or C wherein A indicates 80-100% mortality or knockdown (70-100% in the case of Spodoptera exigua), B indicates 50-79% mortality or knockdown (50-69% in the case of Spodoptera exigua) and C indicates less than 50% mortality or knockdown.
(§4) In Table IV the pest organism used is designated by a letter code and the pest species, the support medium or food, and the type and duration of test is given in Table III.

Another assay has as its system Myzus persicae. Put plainly: Insecticidal test, Myzus persicae (aphids), contact. The settings on record: 72 h, Chinese Cabbage leaf, 3 days, read-out: grading of mortality, MP. On the procedure:
as §1, §2, §3, §4

The next assay deals with Nilaparvata lugens. Nature of the assay: Insecticidal test, Nilaparvata lugens (brown planthopper), contact. The conditions noted are these: 72 h, Cabbage leaf, 3 days, read-out: grading of mortality, NL. The procedure:
as §1, §2, §3, §4

Assay [1] concerns Musca domestica. Put plainly: Knockdown test, Musca domestica (houseflies - adults). The conditions noted are these: cotton wool/sugar, 4 hours, read-out: grading of knockdown, MD/KD. The procedure:
as §1, §2
In the case of the species Musca domestica (housefly), additional tests to determine the knockdown effect of the compounds were performed.
as §3, §4

For assay [2], the system named is Musca domestica. Nature of the assay: Insecticidal test, Musca domestica (houseflies - adults), contact. The conditions noted are these: 24 h, cotton wool/sugar, 1 day, read-out: grading of mortality, MD. On the procedure: as §1, §2, §3, §4
Another assay concerns Blattella germanica. Put plainly: Insecticidal test, Blattella germanica (cockroach nymphs), residual. The settings on record: 72 h, plastic pot, 3 days, read-out: grading of mortality, BG. On the procedure: as §1, §2, §3, §4
Another assay deals with Heliothis virescens. Put plainly: whole plant or invertebrate. The settings on record: in Gossypium hirsutum, 72 h, read-out: grading of mortality, HV. On the procedure:
as §1, §2, §3, §4

Another assay has as its system Diabrotica balteata. Nature of the assay: Insecticidal test, Diabrotica balteata (rootworm larvae), residual. The settings on record: 72 h, filter paper/maize seed, 3 days, read-out: grading of mortality, DB. On the procedure: as §1, §2, §3, §4

Regarding `CCOc1ccc(C(COCc2ccc(F)c(Oc3ccc(Cl)cc3)c2)C(F)(F)F)cc1` (centres unmarked) [Compound 5, 1,1,1-Trifluoro-2-(4-ethoxyphenyl)-3-(3-(4-chlorophenoxy)4-fluorobenzyloxy)propane], the mortality (usually the share of the test organisms that died) at 500 ppm lay within 50 to 79% with Tetranychus urticae; 80 to 100% in the assay with Myzus persicae; 80 to 100% in the assay on Nilaparvata lugens; 80 to 100% in the assay on Musca domestica [2]; 80 to 100% in the assay with Blattella germanica; 80 to 100% in the assay on Heliothis virescens. In the assay on Diabrotica balteata, the mortality at 500 ppm lay in the range of 80 to 100%. The pest or weed control at 500 ppm with Musca domestica [1] was in the range of 80 to 100%.
As for `COc1ccc(C(COCc2ccc(F)c(Oc3ccccc3)c2)C(F)(F)F)cc1` (centres unmarked) [Compound 29, 1,1,1-Trifluoro-2-(4-methoxyphenyl)-3-(3-phenoxy-4-fluorobenzyloxy)propane], the mortality at 100 ppm with Tetranychus urticae was less than 50%; with Myzus persicae, 80 to 100%; in the assay with Nilaparvata lugens, 80 to 100%; in the assay with Musca domestica [2], 80 to 100%; in the assay with Blattella germanica, 80 to 100%; in the assay on Heliothis virescens, 80 to 100%. Also, the mortality at 100 ppm in the assay with Diabrotica balteata lay within 80 to 100%. The pest or weed control at 100 ppm in the assay on Musca domestica [1] is 80 to 100%.
For `FC(F)(F)Oc1ccc(C(=COCc2cccc(Oc3ccccc3)c2)C(F)(F)F)cc1` [Compound 463, 1,1,1-trifluoro-2-(4-trifluoromethoxyphenyl)-3-(3-phenoxybenzyloxy)prop-2-ene], the mortality at 500 ppm in the assay on Tetranychus urticae is less than 50%; in the assay on Myzus persicae, 80 to 100%; with Nilaparvata lugens, less than 50%; in the assay with Musca domestica [2], less than 50%; with Blattella germanica, 80 to 100%; in the assay on Heliothis virescens it was 80 to 100%. Further, the mortality at 500 ppm in the assay on Diabrotica balteata fell in the range of 80 to 100%. Besides, in the assay on Musca domestica [1], the pest or weed control at 500 ppm is less than 50%.
With `CCOc1ccc(C(O)(COCc2cccc(-c3ccccc3)c2C)C(F)(F)F)cc1` (centres unmarked) [Compound 142, 1,1,1-Trifluoro-2-(4-ethoxyphenyl)-3-(2-methyl-3-phenylbenzyloxy)propan-2-ol], the mortality at 500 ppm in the assay with Tetranychus urticae was 80 to 100%; in the assay with Myzus persicae, less than 50%; in the assay with Nilaparvata lugens, less than 50%; with Musca domestica [2], less than 50%; in the assay on Blattella germanica it was less than 50%; in the assay with Heliothis virescens it was 80 to 100%. Moreover, in the assay with Diabrotica balteata, the mortality at 500 ppm is less than 50%. Moreover, the pest or weed control at 500 ppm with Musca domestica [1] is less than 50%.
In the case of `CCOc1ccc(C(COCc2cccc(-c3ccccc3)c2C)C(F)(F)F)cc1` (centres unmarked) [Compound 7, 1,1,1-Trifluoro-2-(4-ethoxyphenyl)-3-(2-methyl-3-phenylbenzyloxy)propane], the mortality at 500 ppm was 80 to 100% with Tetranychus urticae; 80 to 100% in the assay with Myzus persicae; 80 to 100% with Nilaparvata lugens; 80 to 100% with Musca domestica [2]; 80 to 100% in the assay with Blattella germanica; less than 50% with Heliothis virescens. Besides, the mortality at 500 ppm with Diabrotica balteata fell in the range of 80 to 100%. In addition, the pest or weed control at 500 ppm with Musca domestica [1] fell in the range of 80 to 100%.
With `CCOc1ccc(C(F)(COCc2cccc(Oc3ccc(Cl)cc3)c2)C(F)(F)F)cc1` (centres unmarked) [Compound 79, 1,1,1,2-Tetrafluoro-2-(4-ethoxyphenyl)-3-(3-(4-chlorophenoxy)benzyloxy)propane], the mortality at 250 ppm in the assay on Tetranychus urticae (250 ppm) was less than 50%; in the assay with Myzus persicae (250 ppm), less than 50%; with Nilaparvata lugens (250 ppm) it was 80 to 100%; in the assay on Musca domestica [2] (250 ppm), 80 to 100%; in the assay with Blattella germanica (250 ppm), 80 to 100%; in the assay on Heliothis virescens, 80 to 100%. Also, in the assay on Diabrotica balteata (250 ppm), the mortality at 250 ppm is less than 50%. Moreover, the pest or weed control at 250 ppm in the assay with Musca domestica [1] (250 ppm) is 80 to 100%.
As for `CCOc1ccc(C(Cl)(COCc2cccc(Oc3ccccc3)c2)C(F)(F)F)cc1` (centres unmarked) [Compound 38, 1,1,1-trifluoro-2-chloro-2-(4-ethoxyphenyl)-3-(3-phenoxybenzyloxy)propane], the mortality at 100 ppm in the assay with Tetranychus urticae was less than 50%; with Myzus persicae, 80 to 100%; with Nilaparvata lugens, 50 to 79%; in the assay with Musca domestica [2], 80 to 100%; in the assay on Blattella germanica, 80 to 100%; in the assay on Heliothis virescens, 80 to 100%. The mortality at 100 ppm in the assay on Diabrotica balteata is less than 50%. In the assay on Musca domestica [1], the pest or weed control at 100 ppm was less than 50%.
`FC(F)(F)Oc1ccc(C(COCc2cccc(Oc3ccc(Cl)cc3)c2)C(F)(F)F)cc1` (centres unmarked) [Compound 26, 1,1,1-Trifluoro-2-(4-trifluoromethoxyphenyl)-3-(3-(4-chlorophenoxy)benzyloxy)propane]: the mortality at 100 ppm with Tetranychus urticae was in the range of 80 to 100%; in the assay with Myzus persicae it was 50 to 79%; in the assay on Nilaparvata lugens, 80 to 100%; with Musca domestica [2], 80 to 100%; with Blattella germanica it was 80 to 100%; in the assay with Heliothis virescens, 80 to 100%. Besides, in the assay on Diabrotica balteata, the mortality at 100 ppm is 80 to 100%. The pest or weed control at 100 ppm with Musca domestica [1] lay within 80 to 100%.
Regarding `CCCc1ccc(C(=COCc2ccc(F)c(Oc3ccccc3)c2)C(F)(F)F)cc1` [Compound 460, 1,1,1-trifluoro-2-(4-n-propylphenyl)-3-(3-phenoxy-4-fluorobenzyloxy)prop-2-ene], the mortality at 500 ppm is less than 50% with Tetranychus urticae; less than 50% in the assay on Myzus persicae; 50 to 79% in the assay on Nilaparvata lugens; less than 50% with Musca domestica [2]; 80 to 100% in the assay on Blattella germanica; less than 50% in the assay with Heliothis virescens. In addition, in the assay with Diabrotica balteata, the mortality at 500 ppm was in the range of 50 to 79%. In the assay with Musca domestica [1], the pest or weed control at 500 ppm is less than 50%.
As to `OC(COCc1ccc(F)c(Oc2ccccc2)c1)(c1ccc2c(c1)CCC2)C(F)(F)F` (centres unmarked) [Compound 124, 1,1,1-Trifluoro-2-(5-indanyl)-3-(3-phenoxy-4-fluorobenzyloxy)propan-2-ol], the mortality at 500 ppm in the assay on Tetranychus urticae is 80 to 100%; in the assay with Myzus persicae, less than 50%; with Nilaparvata lugens, less than 50%; in the assay on Musca domestica [2] it was less than 50%; with Blattella germanica, less than 50%; in the assay with Heliothis virescens, less than 50%. Besides, the mortality at 500 ppm with Diabrotica balteata was less than 50%. Besides, in the assay on Musca domestica [1], the pest or weed control at 500 ppm is less than 50%.
On to `Fc1ccc(COCC(Cl)(c2ccc(Cl)cc2)C(F)(F)F)cc1Oc1ccccc1` (centres unmarked) [Compound 50, 1,1,1-Trifluoro-2-chloro-2-(4-chlorophenyl)-3-(3-phenoxy-4-fluorobenzyloxy)propane], for which the mortality at 500 ppm in the assay with Tetranychus urticae was less than 50%; in the assay with Myzus persicae it was 80 to 100%; in the assay with Nilaparvata lugens, 80 to 100%; in the assay on Musca domestica [2], 80 to 100%; with Blattella germanica it was less than 50%; in the assay with Heliothis virescens, 80 to 100%. The mortality at 500 ppm in the assay on Diabrotica balteata was 80 to 100%. Further, the pest or weed control at 500 ppm in the assay with Musca domestica [1] was in the range of 80 to 100%.
In the case of `COc1ccc(C(COCc2cccc(Oc3ccccc3)c2)C(F)(F)F)cc1` (centres unmarked) [Compound 30, 1,1,1-Trifluoro-2-(4-methoxyphenyl)-3-(3-phenoxybenzyloxy)propane], the mortality at 500 ppm with Tetranychus urticae is less than 50%; in the assay on Myzus persicae, less than 50%; with Nilaparvata lugens it was 80 to 100%; with Musca domestica [2] it was 80 to 100%; in the assay with Blattella germanica, 80 to 100%; in the assay on Heliothis virescens, 80 to 100%. In addition, the mortality at 500 ppm in the assay with Diabrotica balteata was in the range of 80 to 100%. For the same compound, the pest or weed control at 500 ppm in the assay with Musca domestica [1] is 80 to 100%.
`CCOc1ccc(C(COCc2ccc(F)c(Oc3ccccc3)c2)C(F)(F)F)cc1` (centres unmarked) [Compound 33, 1,1,1-Trifluoro-2-(4-ethoxyphenyl)-3-(3-phenoxy-4-fluorobenzyloxy)propane]: the mortality at 500 ppm with Tetranychus urticae, with Myzus persicae, in the assay with Nilaparvata lugens, in the assay on Musca domestica [2], in the assay with Blattella germanica and with Heliothis virescens was 80 to 100% throughout. In addition, in the assay with Diabrotica balteata, the mortality at 500 ppm was 80 to 100%. Besides, the pest or weed control at 500 ppm in the assay with Musca domestica [1] lay in the range of 80 to 100%.
